Laboratory results taken from patent publication US20130005728A1, “SUBSTITUTED PYRIMIDINES AS PROSTAGLANDIN D2 RECEPTOR ANTAGONISTS” (AVENTIS PHARMACEUTICALS INC., priority 2010, published 2013).
Counter-ions that a name gives are not always drawn.

target: T1, human prostaglandin D2 receptor (DP) (DP1) (Homo sapiens, UniProt Q13258); assay: Antagonist activity on BW245C-induced cAMP accumulation in human platelet rich plasma (hPRP) by HTRF cAMP assay; assay type: cell-based; settings: inhibition of BW245C (25 nM)-induced cAMP accumulation in human platelet rich plasma; compound tested as HCl salt; read-out: hPRP IC50 (as HCl salt)
T1 construct: endogenous in cells; host or cells: human platelets in platelet-rich plasma from donor blood
T1 sequence (Q13258 1-359): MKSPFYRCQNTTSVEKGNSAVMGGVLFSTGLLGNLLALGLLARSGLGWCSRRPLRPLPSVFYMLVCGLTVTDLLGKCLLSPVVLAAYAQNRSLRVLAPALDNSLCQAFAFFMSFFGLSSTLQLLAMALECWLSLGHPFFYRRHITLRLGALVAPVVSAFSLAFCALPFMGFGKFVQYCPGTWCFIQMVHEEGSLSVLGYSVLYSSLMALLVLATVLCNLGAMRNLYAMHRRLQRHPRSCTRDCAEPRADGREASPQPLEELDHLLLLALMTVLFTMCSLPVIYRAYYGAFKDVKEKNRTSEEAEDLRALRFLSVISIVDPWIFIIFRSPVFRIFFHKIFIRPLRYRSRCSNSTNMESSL
Source text: Assessment of Antagonist Activities of Compounds on BW245C-induced cAMP Accumulation in Human Platelet Rich Plasma (hPRP) by HTRF cAMP Assay
The purpose of the assay is to assess compound antagonist activity at the human prostaglandin D2 receptor (DP) (DP1) in the presence of plasma proteins. DP is a Gs-protein coupled receptor, the activation of which induces cAMP accumulation. BW245C is a DP selective agonist. Therefore, by measuring inhibition of BW245C-induced 3′-5′-cyclic adenosine monophosphate (cAMP) accumulation in human platelet-rich plasma (PRP), the assay enables us to identify or confirm antagonist compounds at the human DP and/or IP receptors.
The principle of the assay is based on HTRF technology (Homogeneous Time-Resolved Fluorescence). The method is a competitive immunoassay between native cAMP produced by cells and the tracer cAMP labeled with the dye d2. The tracer is visualized by a monoclonal antibody anti-cAMP labeled with cryptate. The specific signal (i.e. energy transfer) is inversely related to the concentration of cAMP in the standards or samples. The assay was carried out using the cAMP HiRange HTRF kit from Cisbio (catalog number 62AM6PEB, 888-963-4567).
Preparation of Human Platelet Rich Plasma (hPRP): Human blood was obtained from sanofi-aventis on-site blood donor panel. The blood was gently transferred from the blood bag into a 50 ml centrifuge tube and centrifuged at 223×g (1000 rpm) for 15 minutes without break. The top layer (PRP) was aspirated slowly and transferred to a 250 ml centrifuge tube. The PRP was placed in the cell culture hood for approximately 30 minutes before use.
Preparation of IBMX: IBMX is a phosphodiesterase (PDE) inhibitor and is included in the assay to prevent breakdown of cAMP. 1M IBMX stock was prepared in DMSO. 20 μL of 1M IBMX stock was then added into 30 μL of DMSO to obtain a 400 mM IBMX DMSO solution. This was further diluted 1:50 in 0.9% sodium chloride to obtain an 8 mM IBMX working solution. The solution was sonicated for 60 minutes before use.
Preparation of BW245C: 10 mM BW245C stock was prepared in DMSO and aliquots were stored at −80° C. On the day of the assay, 10 mM BW245C stock was diluted 1 to 400 in DMSO to make a 25 μM solution. 100 μL of the 25 μM BW245C solution was added to 4900 μL of 0.9% sodium chloride to make a 500 nM working solution.
Dilution of compounds: 10 mM compound DMSO stock solutions were serially diluted 1:3 in DMSO in a 96-well plate to achieve 11 different concentrations ranging from 10 mM to 0.00017 mM. A further 1:20 dilution in 0.9% sodium chloride solution was carried out for each concentration to obtain working concentrations ranging from 500 μM to 0.0085 μM (11 points) for each compound. For positive and negative controls, DMSO (without compound) was diluted 1:20 in 0.9% sodium chloride solution.
Preparation of cAMP standards, cAMP-d2 and anti-cAMP cryptate (all in the assay kit): cAMP standard was reconstituted by adding distilled water according to the manufacturer's instruction (456 μL of water usually). The reconstituted cAMP standard was serially diluted 1:4 in 0.9% sodium chloride solution to achieve 11 different concentrations. cAMP-d2 was reconstituted by adding 2 mL of distilled water and then further diluting it in 8 mL of lysis buffer (in the kit). Anti-cAMP cryptate was reconstituted by adding 1.1 mL of distilled water and then further diluting it in 4.4 mL of lysis buffer.
Assay Procedure: In the assay, each compound was run in duplicate. The final assay volume was 50 μl in each well.
In the assay plate, 42 μL of platelet rich plasma (PRP) was added in each well. This was followed by the addition in each well of 2.5 μL of 8 mM IBMX (final concentration 400 μM) and 3 μL of diluted compound at varying concentrations (final concentrations ranging from 30,000 nM to 0.51 nM, 11 points for each compound). In the positive and negative control wells, 3 μL of diluted DMSO solution was added instead of compound. […]

IC50	SMILES
1180 nM	COc1nc(NCCc2ccc(OC(F)(F)F)cc2)cc(N2CCOCC2)n1 [Example 5, (2-Methoxy-6-morpholin-4-yl-pyrimidin-4-yl)-[2-(4-trifluoromethoxy-phenyl)-ethyl]-amine]
885 nM	COc1nc(NCCc2ccc(OC(F)(F)F)cc2)cc(N2CCCCC2C(=O)O)n1 (stereo not drawn) [Example 3, 1-{2-Methoxy-6-[2-(4-trifluoromethoxy-phenyl)-ethylamino]-pyrimidin-4-yl}-piperidine-2-carboxylic acid trifluoroacetate]

same assay, conditions: inhibition of BW245C (25 nM)-induced cAMP accumulation in human platelet rich plasma; read-out: hPRP IC50

IC50	SMILES
397 nM	COc1nc(NCCc2ccc(OC(F)(F)F)cc2)cc(N2CCN(c3ccccc3)CC2)n1 [Example 13, [2-Methoxy-6-(4-phenyl-piperazin-1-yl)-pyrimidin-4-yl]-[2-(4-trifluoromethoxy-phenyl)-ethyl]-amine]
317 nM	COc1nc(NCCc2ccc(OC(F)(F)F)cc2)cc(N2CCC(C)(C(=O)O)C2)n1 (stereo not drawn) [Example 7, 1-{2-Methoxy-6-[2-(4-trifluoromethoxy-phenyl)-ethylamino]-pyrimidin-4-yl}-3-methyl-pyrrolidine-3-carboxylic acid]
10 nM	COc1nc(NCCc2ccc(OC(F)(F)F)cc2)cc(N2CCOC(C(=O)O)C2)n1 (stereo not drawn) [Example 1, 4-{2-Methoxy-6-[2-(4-trifluoromethoxy-phenyl)-ethylamino]-pyrimidin-4-yl}-morpholine-2-carboxylic acid trifluoroacetate]
376 nM	COc1nc(NCCc2ccc(OC(F)(F)F)cc2)cc(N2C[C@@H](C(=O)O)[C@H](C(C)C)C2)n1 [Example 8, (3S,4S)-4-Isopropyl-1-{2-methoxy-6-[2-(4-trifluoromethoxy-phenyl)-ethylamino]-pyrimidin-4-yl}-pyrrolidine-3-carboxylic acid]
409 nM	COc1ccc([C@H]2CN(c3cc(NCCc4ccc(OC(F)(F)F)cc4)nc(OC)n3)C[C@@H]2C(=O)O)cc1 [Example 11, (3R,4S)-4-(4-Methoxy-phenyl)-1-{2-methoxy-6-[2-(4-trifluoromethoxy-phenyl)-ethylamino]-pyrimidin-4-yl}-pyrrolidine-3-carboxylic acid]
609 nM	CCOC(=O)N1CCN(c2cc(NCCc3ccc(OC(F)(F)F)cc3)nc(OC)n2)CC1 [Example 6]
368 nM	COc1nc(NCCc2ccc(OC(F)(F)F)cc2)cc(N2CCN(CC(=O)O)CC2)n1 [Example 2, (4-{2-Methoxy-6-[2-(4-trifluoromethoxy-phenyl)-ethylamino]-pyrimidin-4-yl}-piperazin-1-yl)-acetic acid tristrifluoroacetate]
28 nM	COc1nc(NCCc2ccc(OC(F)(F)F)cc2)cc(N2C[C@H](C(=O)O)[C@@H](c3ccccc3)C2)n1 [Example 10, (3R,4S)-1-{2-Methoxy-6-[2-(4-trifluoromethoxy-phenyl)-ethylamino]-pyrimidin-4-yl}-4-phenyl-pyrrolidine-3-carboxylic acid]
713 nM	COc1nc(NCCc2ccc(OC(F)(F)F)cc2)cc(N2CC[C@H](CC(=O)O)C2)n1 [Example 14, ((R)-1-{2-Methoxy-6-[2-(4-trifluoromethoxy-phenyl)-ethylamino]-pyrimidin-4-yl}-pyrrolidin-3-yl)-acetic acid]
32 nM	COc1nc(NCCc2ccc(OC(F)(F)F)cc2)cc(N2CCCCC2CC(=O)O)n1 (stereo not drawn) [Example 4, (1-{2-Methoxy-6-[2-(4-trifluoromethoxy-phenyl)-ethylamino]-pyrimidin-4-yl}-piperidin-2-yl)-acetic acid trifluoroacetate]
436 nM	COc1nc(NCCc2ccc(OC(F)(F)F)cc2)cc(N2C[C@@H](C(=O)O)[C@H](c3ccccc3OC)C2)n1 (racemic) [Example 15, (±)-trans-4-(2-Methoxy-phenyl)-1-{2-methoxy-6-[2-(4-trifluoromethoxy-phenyl)-ethylamino]-pyrimidin-4-yl}-pyrrolidine-3-carboxylic acid]
1220 nM	COc1nc(NCCc2ccc(OC(F)(F)F)cc2)cc(N2CCc3ccccc3C2)n1 [Example 12, [6-(3,4-Dihydro-1H-isoquinolin-2-yl)-2-methoxy-pyrimidin-4-yl]-[2-(4-trifluoromethoxy-phenyl)-ethyl]-amine trifluoroacetic acid salt]
575 nM	COc1nc(NCCc2ccc(OC(F)(F)F)cc2)cc(N2CCC(C(=O)O)C2)n1 (stereo not drawn) [Example 9, 1-{2-Methoxy-6-[2-(4-trifluoromethoxy-phenyl)-ethylamino]-pyrimidin-4-yl}-pyrrolidine-3-carboxylic acid]
